From ChEMBL document CHEMBL2311428, “Binding partners for curcumin in human schwannoma cells: biologic implications” (Bioorg Med Chem, 2013)
The source made the active and inactive calls. No cut-off for these calls is given here.

How the values were obtained:
[1] = biological target: Heat shock protein HSP90 (Homo sapiens) (UniProt P07900+P08238); experiment: Binding affinity to Hsp90 in human HEI-193 cells harboring NF2 mutant at 100 uM after 30 mins by SDS-PAGE analysis; type: cell-based
[2] = biological target: T1, D-3-phosphoglycerate dehydrogenase (Homo sapiens) (UniProt O43175); experiment: Binding affinity to 3-PGDH in human HEI-193 cells harboring NF2 mutant at 100 uM after 30 mins by SDS-PAGE analysis; type: cell-based
T1 sequence (whole entry): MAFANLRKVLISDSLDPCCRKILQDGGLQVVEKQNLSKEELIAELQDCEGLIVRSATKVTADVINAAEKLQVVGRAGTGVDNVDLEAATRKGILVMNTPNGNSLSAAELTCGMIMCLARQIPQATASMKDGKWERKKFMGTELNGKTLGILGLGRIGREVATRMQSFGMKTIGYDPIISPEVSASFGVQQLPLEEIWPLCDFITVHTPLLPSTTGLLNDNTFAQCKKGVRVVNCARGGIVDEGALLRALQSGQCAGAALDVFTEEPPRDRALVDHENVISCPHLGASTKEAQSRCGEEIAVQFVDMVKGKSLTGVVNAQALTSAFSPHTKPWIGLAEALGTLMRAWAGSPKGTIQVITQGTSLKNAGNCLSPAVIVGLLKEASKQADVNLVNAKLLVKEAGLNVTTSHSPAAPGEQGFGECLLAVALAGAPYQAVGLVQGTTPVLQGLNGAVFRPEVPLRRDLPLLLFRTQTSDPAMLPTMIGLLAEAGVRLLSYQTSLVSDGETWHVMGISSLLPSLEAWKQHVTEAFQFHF

HEI-193 = experiment: Binding affinity to Hsp70 in human HEI-193 cells harboring NF2 mutant at 100 uM after 30 mins by SDS-PAGE analysis; type: cell-based
[3] = biological target: Actin, cytoplasmic 1 (Homo sapiens) (UniProt P60709); experiment: Binding affinity to beta-actin in human HEI-193 cells harboring NF2 mutant at 100 uM after 30 mins by SDS-PAGE analysis; type: cell-based
[4] = Cytotoxicity against human HEI-193 cells harboring NF2 mutant assessed as growth inhibition after 72 hrs by MTT assay; type: functional, cell-based; conditions: HEI-193, 72 h
[5] = Downregulation of Hsp27 expression in human keratinocytes at 10 uM; type: functional, cell-based; conditions: Keratinocyte

Structure (SMILES): COc1cc(/C=C/C(=O)CC(=O)/C=C/c2ccc(OC(=O)CCCC(=O)NCCCOCCOCCOCCCNC(=O)CCCC[C@@H]3SC[C@@H]4NC(=O)N[C@@H]43)c(OC)c2)ccc1O
- Activity [1]: Active
- Activity [2]: Active
- Activity (HEI-193): Active
- Activity [3]: Active
- IC50 [4]: 36 µM

Structure (SMILES): COc1cc(/C=C/C(=O)CC(=O)/C=C/c2ccc(O)c(OC)c2)ccc1O [CURCUMIN]
- Activity [5]: 34%
- IC50 [4]: 18 µM
